pIC50: −log10 of the molar value. Converted amounts (≈) assume the structure as drawn. The source made the active and inactive calls. Unless noted, the rule behind the calls is not given here.
Assays:
[1] = tested on: Bacillus subtilis; experiment: Antibacterial activity against Bacillus subtilis by CLSI method; format: functional
[2] = tested on: Staphylococcus aureus; experiment: Antibacterial activity against methicillin-resistant Staphylococcus aureus ATCC 33591 by CLSI method; format: functional, organism-based; conditions: for pIC50: read-out: IC50
[3] = tested on: Staphylococcus aureus; experiment: Antibacterial activity against Staphylococcus aureus ATCC 29213 by CLSI method; format: functional, organism-based
[4] = tested on: Cryptococcus neoformans; experiment: Antifungal activity against Cryptococcus neoformans ATCC 90113 by CLSI method; format: functional, organism-based
[5] = tested on: Candida albicans; experiment: Antifungal activity against Candida albicans ATCC 90028 by CLSI method; format: functional, organism-based
[6] = tested on: Aspergillus fumigatus; experiment: Antifungal activity against Aspergillus fumigatus ATCC 204305 by CLSI method; format: functional, organism-based
[7] = tested on: Mycobacterium intracellulare; experiment: Antibacterial activity against Mycobacterium intracellulare ATCC 23068 by alamar blue assay; format: functional, organism-based
[8] = tested on: Vero; experiment: Cytotoxicity against african green monkey Vero cells up to 4.6 ug/ml after 48 hrs by neutral red assay; format: cell-based; conditions: chlorocebus sabaeus
[9] = tested on: Leishmania donovani; experiment: Antileishmanial activity against axenic amastigote of Leishmania donovani after 72 hrs by alamar blue assay; format: functional, organism-based; conditions: for pIC50: read-out: IC50
[10] = tested on: Leishmania donovani; experiment: Antileishmanial activity against promastigote of Leishmania donovani after 72 hrs by alamar blue assay; format: functional, organism-based; conditions: Leishmania donovani, 72 h; for pIC50: read-out: IC50
[11] = tested on: Plasmodium falciparum; experiment: Antimalarial activity against chloroquine-sensitive Plasmodium falciparum D6 assessed as plasmodial LDH activity after 72 hrs; format: functional, organism-based; conditions: D6, 72 h
[12] = Staphylococcus aureus, ATCC 33591

O=C1N[C@@H](c2c[nH]c3cc(Br)ccc23)CN=C1c1c[nH]c2cc(Br)ccc12 [HAMACANTHIN A]
MIC [1]: 3.22 µM (≈ 1.57 µg/mL) | MIC [2, 12]: 6.45 µM (≈ 3.14 µg/mL) | MIC [3]: 6.45 µM (≈ 3.14 µg/mL)

O=[N+]([O-])c1ccc(C(c2c[nH]c3ccccc23)c2c[nH]c3ccccc23)o1
pIC50 [4]: 4.53 | MFC [4]: inactive | MIC [4]: inactive | Activity [5]: inactive | Activity [6]: inactive | MBC [7]: inactive | MIC [7]: inactive | pIC50 ([7]; Mycobacterium intracellulare, ATCC 23068, read-out: IC50): 4.28 | MBC [2]: inactive | MIC [2, 12]: 14 µM (≈ 5 µg/mL) | pIC50 [2, 12]: 5.07 | pIC50 [3]: 4.92 | MBC [3]: 28 µM (≈ 10 µg/mL) | MIC [3]: 28 µM (≈ 10 µg/mL) | Activity [8]: Non-toxic | IC90 ([9]; Leishmania donovani, 72 h): 41.8 µM | pIC50 ([9]; Leishmania donovani, 72 h): 4.50 | IC90 [10]: 12.2 µM | pIC50 [10]: 5.18

Clc1cccc(Cl)c1C(c1c[nH]c2ccccc12)c1c[nH]c2ccccc12
IC50 [7]: Not Active | MBC [7]: inactive | MIC [7]: inactive | IC50 [2]: Not Active | MBC [2]: inactive | MIC [2]: inactive | pIC50 [3]: 5.63 | MBC [3]: 51.3 µM (≈ 20.1 µg/mL) | MIC [3]: 6.41 µM (≈ 2.51 µg/mL) | Activity [8]: Non-toxic | pIC50 [11]: 4.92 | IC90 ([9]; Leishmania donovani, 72 h): 81.5 µM | pIC50 ([9]; Leishmania donovani, 72 h): 4.32 | IC90 [10]: 90.8 µM | pIC50 [10]: 4.09

Brc1cccc(C(c2c[nH]c3ccccc23)c2c[nH]c3ccccc23)c1
pIC50 [4]: 5.27 | MFC [4]: 12.5 µM (≈ 5.02 µg/mL) | MIC [4]: 12.5 µM (≈ 5.02 µg/mL) | Activity [5]: inactive | Activity [6]: inactive | IC50 [7]: Not Active | MBC [7]: inactive | MIC [7]: inactive | MBC [2]: inactive | MIC [2, 12]: 12.5 µM (≈ 5.02 µg/mL) | pIC50 [2, 12]: 5.20 | pIC50 [3]: 5.43 | MBC [3]: inactive | MIC [3]: 12.5 µM (≈ 5.02 µg/mL) | Activity [8]: Non-toxic | IC90 ([9]; Leishmania donovani, 72 h): 75.6 µM | pIC50 ([9]; Leishmania donovani, 72 h): 4.45 | IC90 [10]: 59.4 µM | pIC50 [10]: 4.56

Clc1ccc(C(c2c[nH]c3ccccc23)c2c[nH]c3ccccc23)cc1
pIC50 [4]: 5.25 | MFC [4]: 14 µM (≈ 5.01 µg/mL) | MIC [4]: 14 µM (≈ 5.01 µg/mL) | Activity [5]: inactive | Activity [6]: inactive | IC50 [7]: Not Active | MBC [7]: inactive | MIC [7]: inactive | MBC [2, 12]: 56.2 µM (≈ 20.1 µg/mL) | MIC [2, 12]: 14 µM (≈ 5 µg/mL) | pIC50 [2, 12]: 5.21 | pIC50 [3]: 5.42 | MBC [3]: inactive | MIC [3]: 7.02 µM (≈ 2.51 µg/mL) | Activity [8]: Non-toxic | IC90 ([9]; Leishmania donovani, 72 h): 77 µM | pIC50 ([9]; Leishmania donovani, 72 h): 4.38 | IC90 [10]: 39 µM | pIC50 [10]: 4.57

COc1ccc(C(c2c[nH]c3ccccc23)c2c[nH]c3ccccc23)cc1
pIC50 [4]: 4.45 | MFC [4]: inactive | MIC [4]: inactive | Activity [5]: inactive | Activity [6]: inactive | IC50 [7]: Not Active | MBC [7]: inactive | MIC [7]: inactive | IC50 [2]: Not Active | MBC [2]: inactive | MIC [2]: inactive | pIC50 [3]: 5.04 | MBC [3]: inactive | MIC [3]: inactive | Activity [8]: Non-toxic | IC50 [9]: Not Active | IC90 [9]: inactive | IC90 [10]: 106 µM | pIC50 [10]: 4.05
